This assay deals with T1, PfGDPD-HA (PfGDPD; glycerophosphodiesterase) (Plasmodium falciparum, UniProt Q8IM31).
T1 construct: gene PF3D7_1406300; endogenous locus, recodonised segment 24-475 aa, C-terminal 3xHA tag kept; 475-residue precursor with N-terminal signal peptide
Kind of assay: LC-MS/MS of GPC consumption and choline release by bead-bound affinity-purified enzyme. The assay is classed as biochemical. To be noted: enzyme immobilised on anti-HA beads; 100 mM HEPES pH 7.5, 150 mM NaCl, 10 mM MgCl2, 37°C; GPC 1 mM (Methods) or 10 mM (Figure 6 legend).

T1 sequence (Q8IM31 entry or part of it): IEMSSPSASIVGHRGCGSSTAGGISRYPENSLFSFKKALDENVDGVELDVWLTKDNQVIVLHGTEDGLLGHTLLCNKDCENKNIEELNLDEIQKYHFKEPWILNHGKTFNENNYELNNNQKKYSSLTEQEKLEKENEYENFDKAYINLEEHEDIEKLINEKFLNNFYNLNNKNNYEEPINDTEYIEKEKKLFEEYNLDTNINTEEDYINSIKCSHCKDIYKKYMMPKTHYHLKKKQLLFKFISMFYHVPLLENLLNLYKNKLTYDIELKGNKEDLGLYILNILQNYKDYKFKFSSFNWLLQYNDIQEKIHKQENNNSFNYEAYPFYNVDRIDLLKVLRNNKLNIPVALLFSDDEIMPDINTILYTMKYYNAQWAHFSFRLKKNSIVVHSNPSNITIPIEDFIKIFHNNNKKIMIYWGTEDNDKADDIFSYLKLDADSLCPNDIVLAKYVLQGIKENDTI

Consider `C[N+](C)(C)CCOP(=O)([O-])OC[C@H](O)CO` [GPC], for which the “LC-MS/MS of GPC consumption and choline release by bead-bound affinity-purified” value is recorded as “resulted in the time-dependent appearance of choline with a concomitant decrease in GPC levels”.

Values taken from PMC9886279, “A choline-releasing glycerophosphodiesterase essential for phosphatidylcholine biosynthesis and blood stage development in the malaria parasite” (eLife, 2022).
